For the test, the target named is GLP-1 Receptor (Homo sapiens, UniProt P43220). Put plainly: GLP-1R agonist cAMP stimulation assay (HEK293/GLP1R/CRE-LUC cells, Cisbio cAMP dynamic 2 kit). Type of test: cell-based. The settings on record: Table 3, HEK293/GLP1R/CRE-LUC cells, 30 min. As for the experimental part: Activation of GLP-1 receptor is known to stimulate cyclic AMP (cAMP) production in cells which indicates primary coupling to the G as subunit of the G protein heterotrimeric complex.
To optimize functional activity directed toward G as coupling, a HEK293/CRE-Luc cell line developed by HDB stably expressing the GLP-1 Receptor was used. 200× concentration of compound working solutions were prepared (Agilent Technologies Bravo) with ½ log serial dilution in 384-well Echo LDV plate (Labcyte, CatOLP-0200). 50 nL/well 200× concentration of compound working solutions were moved to 384-well white low volume plate (Greiner, Cat4784075) using Labcyte ECH0550.1×10^5 cells/mL HEK293/GLP1R/CRE-LUC (HD Biosciences) cell suspensions prepared with assay buffer (DPBS containing 0.5 mM IBMX (Sigma, Cat15879) and 0.10 BSA (GENVIEW, Cat4FA016-100g)), 10 uL cell suspensions were added to each well of previous generated assay plate which already contains 50 n^1 compound at 200 xconcentration using ThermioFisher Multidrop Combi (1000 cells/well). Seal the plate and incubate at 37 with […] for 30 m.
After incubation the cAMP assay signal was generated using cAMP dynamic 2 Kit (Cisbio). 5 μL cAMP-d2 working solution was added to each well, followed with 5 L Anti-cAMP antibody-cryptate working solution added to each well using ThermoFisher Multidrop Combi. Incubate at room temperature for 1 hour protected from light. Read the fluorescence at 665 and 615 nm with Reader PerkinElmer EnVision. % oActivity=100%×(mean RLU of test sample−mean RLU of vehicle control)/(mean RLU of MAX control−mean RLU of vehicle control)

For 30 compounds, EC50 results are on record in US12291529B2, “Heterocyclic GLP-1 agonists” (Gasherbrum Bio, Inc., priority 2023, dated 2025).

The EC50 is the concentration needed to bring the measured effect to its halfway point. A high value points to lower potency in that assay.

Sequence of GLP-1 Receptor (P43220 24-463, species assumed): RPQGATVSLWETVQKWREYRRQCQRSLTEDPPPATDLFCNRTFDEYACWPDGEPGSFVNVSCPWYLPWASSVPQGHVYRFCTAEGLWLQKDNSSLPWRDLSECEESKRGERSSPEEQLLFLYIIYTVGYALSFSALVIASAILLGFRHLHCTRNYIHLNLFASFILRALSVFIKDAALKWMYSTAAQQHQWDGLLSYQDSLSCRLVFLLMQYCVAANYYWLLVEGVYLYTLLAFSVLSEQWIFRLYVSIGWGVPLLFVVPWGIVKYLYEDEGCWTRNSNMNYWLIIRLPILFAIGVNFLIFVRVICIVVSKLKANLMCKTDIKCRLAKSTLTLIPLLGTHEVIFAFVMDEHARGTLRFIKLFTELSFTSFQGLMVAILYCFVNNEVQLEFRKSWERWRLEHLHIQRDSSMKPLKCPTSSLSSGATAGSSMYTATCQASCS

On to `CN=S(C)(=O)c1ccc(-n2ccn(-c3c4c(nn3-c3cc(C)c(F)c(C)c3)CCN(C(=O)c3cc5cc(C6CCOCC6)ccc5n3[C@@]3(c5noc(=O)[nH]5)C[C@@H]3C)[C@H]4C)c2=O)cc1` (single isomer, unassigned) [Compound 112], for which it took 0.057 nM to reach a half-maximal effect (EC50).
`Cc1cc(-n2nc3c(c2-n2ccn(-c4ccc(S(C)(=O)=NC#N)cc4)c2=O)[C@H](C)N(C(=O)c2cc4cc(C5CCOCC5)ccc4n2[C@@]2(c4noc(=O)[nH]4)C[C@@H]2C)CC3)cc(C)c1F` (single isomer, unassigned) [Compound 113]: the EC50 worked out at 0.035 nM. This EC50 lies about 1.6-fold lower than the previous one.
As for `Cc1cc(-n2nc3c(c2-n2ccn(-c4ccc(S(C)(=N)=O)cc4)c2=O)[C@H](C)N(C(=O)c2cc4cc(C5CCOCC5)ccc4n2[C@@]2(c4noc(=O)[nH]4)C[C@@H]2C)CC3)cc(C)c1F` (single isomer, unassigned) [Compound 114], the figure is 0.017 nM; as for `Cc1cc(-n2nc3c(c2-n2ccn(-c4ccc(S(C)(=N)=O)cc4)c2=O)[C@H](C)N(C(=O)c2cc4cc(C5CCOCC5)ccc4n2[C@@]2(c4noc(=O)[nH]4)C[C@@H]2C)CC3)cc(C)c1F` (single isomer, unassigned) [Compound 115], 0.049 nM; as for `CCS(=N)(=O)c1ccc(-n2ccn(-c3c4c(nn3-c3cc(C)c(F)c(C)c3)CCN(C(=O)c3cc5cc(C6CCOCC6)ccc5n3[C@@]3(c5noc(=O)[nH]5)C[C@@H]3C)[C@H]4C)c2=O)cc1` (single isomer, unassigned) [Compound 116], 0.049 nM.
Consider `CCS(=N)(=O)c1ccc(-n2ccn(-c3c4c(nn3-c3cc(C)c(F)c(C)c3)CCN(C(=O)c3cc5cc(C6CCOCC6)ccc5n3[C@@]3(c5noc(=O)[nH]5)C[C@@H]3C)[C@H]4C)c2=O)cc1` (single isomer, unassigned) [Compound 117], for which the EC50 worked out at 0.011 nM.
`Cc1cc(-n2nc3c(c2-n2ccn(-c4ccc(S(C)(=O)=NC#N)cc4)c2=O)[C@H](C)N(C(=O)c2cc4cc(C5CCOCC5)ccc4n2[C@@]2(c4noc(=O)[nH]4)C[C@@H]2C)CC3)cc(C)c1F` (single isomer, unassigned) [Compound 122] returned a concentration for a half-maximal effect (EC50) of 0.046 nM.
As for `Cc1cc(-n2nc3c(c2-n2ccn(-c4ccc(S5(=O)=NCCC5)cc4)c2=O)[C@H](C)N(C(=O)c2cc4cc(C5CCOCC5)ccc4n2C2(c4nsc(=O)[nH]4)CC2)CC3)cc(C)c1F` (single isomer, unassigned) [Compound 130], the figure is 0.23 nM.
Next, `Cc1cc(-n2nc3c(c2-n2ccn(-c4ccc(S5(=O)=NCCC5)cc4)c2=O)[C@H](C)N(C(=O)c2cc4cc(C5CCOCC5)ccc4n2C2(c4nsc(=O)[nH]4)CC2)CC3)cc(C)c1F` (single isomer, unassigned) [Compound 131]: 0.05 nM; `CCS(=N)(=O)c1ccc(-n2ccn(-c3c4c(nn3-c3cc(C)c(F)c(C)c3)CCN(C(=O)c3sc5cc(C6CCOCC6)ccc5c3C3(c5noc(=O)[nH]5)CC3)[C@H]4C)c2=O)cc1` (single isomer, unassigned) [Compound 132]: 0.98 nM; `Cc1cc(-n2nc3c(c2-n2ccn(-c4ccc(S(=N)(=O)C5CC5)cc4)c2=O)[C@H](C)N(C(=O)c2cc4cc(C5CCOCC5)ccc4n2[C@@]2(c4noc(=O)[nH]4)C[C@@H]2C)CC3)cc(C)c1F` (single isomer, unassigned) [Compound 134]: 0.0051 nM.
On to `Cc1cc(-n2nc3c(c2-n2ccn(-c4ccc(S(=N)(=O)C5CC5)cc4)c2=O)[C@H](C)N(C(=O)c2cc4cc(C5CCOCC5)ccc4n2[C@@]2(c4noc(=O)[nH]4)C[C@@H]2C)CC3)cc(C)c1F` (single isomer, unassigned) [Compound 135], for which the concentration for a half-maximal effect (EC50) was found to be 0.001 nM. This EC50 is about 5.1-fold lower than that of the compound before.
On to `CCS(=N)(=O)c1ccc(-n2ccn(-c3c4c(nn3-c3cc(C)c(F)c(C)c3)CCN(C(=O)c3cc5cc(C6CCOCC6)ccc5n3[C@@]3(c5noc(=O)[nH]5)C[C@@H]3C)[C@H]4C)c2=O)c(Cl)c1` (single isomer, unassigned) [Compound 136], for which the 50% effective concentration (EC50) is 0.047 nM.
As for `CCS(=N)(=O)c1ccc(-n2ccn(-c3c4c(nn3-c3cc(C)c(F)c(C)c3)CCN(C(=O)c3cc5cc(C6CCOCC6)ccc5n3[C@@]3(c5noc(=O)[nH]5)C[C@@H]3C)[C@H]4C)c2=O)c(Cl)c1` (single isomer, unassigned) [Compound 137], the figure is 0.15 nM; as for `CCS(=N)(=O)c1ccc(-n2ccn(-c3c4c(nn3-c3cc(C)c(F)c(C)c3)CCN(C(=O)c3cc5cc(C6CCOCC6)ccc5n3[C@@]3(c5noc(=O)[nH]5)C[C@@H]3C)[C@H]4C)c2=O)c(F)c1` (single isomer, unassigned) [Compound 138], 0.001 nM; as for `CCS(=N)(=O)c1ccc(-n2ccn(-c3c4c(nn3-c3cc(C)c(F)c(C)c3)CCN(C(=O)c3cc5cc(C6CCOCC6)ccc5n3[C@@]3(c5noc(=O)[nH]5)C[C@@H]3C)[C@H]4C)c2=O)c(F)c1` (single isomer, unassigned) [Compound 139], 0.062 nM.
Next, `CCS(=N)(=O)c1ccc(-n2ccn(-c3c4c(nn3-c3cc(C)c(F)c(C)c3)CCN(C(=O)c3cc5cc(C6CCOCC6)ccc5n3[C@@]3(c5noc(=O)[nH]5)C[C@@H]3C)[C@H]4C)c2=O)cn1` (single isomer, unassigned) [Compound 140]: 0.099 nM.
Turning to `CCS(=N)(=O)c1ccc(-n2ccn(-c3c4c(nn3-c3cc(C)c(F)c(C)c3)CCN(C(=O)c3cc5cc(C6CCOCC6)ccc5n3[C@@]3(c5noc(=O)[nH]5)C[C@@H]3C)[C@H]4C)c2=O)cn1` (single isomer, unassigned) [Compound 141], the EC50 worked out at 0.022 nM. This EC50 is about 4.5-fold lower than that of the compound before.
In the case of `Cc1nnc(C2(n3c(C(=O)N4CCc5nn(-c6cc(C)c(F)c(C)c6)c(-n6ccn(-c7ccc(S8(=O)=NCCC8)cc7)c6=O)c5[C@@H]4C)cc4cc(C5CCOCC5)ccc43)CC2)o1` (single isomer, unassigned) [Compound 155], the EC50 is 0.99 nM.
Regarding `Cc1nnc(C2(n3c(C(=O)N4CCc5nn(-c6cc(C)c(F)c(C)c6)c(-n6ccn(-c7ccc(S8(=O)=NCCC8)cc7)c6=O)c5[C@@H]4C)cc4cc(C5CCOCC5)ccc43)CC2)o1` (single isomer, unassigned) [Compound 156], the EC50 is 1.5 nM. Against the preceding compound, the EC50 is about 1.5-fold higher.
As for `Cc1nnc(Cn2c(C(=O)N3CCc4nn(-c5cc(C)c(F)c(C)c5)c(-n5ccn(-c6ccc(S7(=O)=NCCC7)cc6)c5=O)c4[C@@H]3C)cc3cc(C4CCOCC4)ncc32)o1` (single isomer, unassigned) [Compound 159], the figure is 5.9 nM.
The compound `CCS(=O)(=NC)c1ccc(-n2ccn(-c3c4c(nn3-c3cc(C)c(F)c(C)c3)CCN(C(=O)c3cc5cc(C6CCOCC6)ccc5n3C[C@@H]3CCO3)[C@H]4C)c2=O)cc1` (single isomer, unassigned) [Compound 162] displayed a concentration giving a half-maximal response (EC50) of 3.2 nM.
For `CCS(=O)(=NC)c1ccc(-n2ccn(-c3c4c(nn3-c3cc(C)c(F)c(C)c3)CCN(C(=O)c3cc5cc(C6CCOCC6)ccc5n3C[C@H]3CCO3)[C@H]4C)c2=O)cc1` (single isomer, unassigned) [Compound 165], the EC50 was 9.9 nM. This EC50 lies about 3.1-fold higher than the previous one.
As for `CCS(=N)(=O)c1ccc(-n2ccn(-c3c4c(nn3-c3ccc(F)c(C5CC5)c3)CCN(C(=O)c3cc5cc(C6CCOCC6)ccc5n3[C@@]3(c5noc(=O)[nH]5)C[C@@H]3C)[C@H]4C)c2=O)c(F)c1` (single isomer, unassigned) [Compound 166], the figure is 0.019 nM; as for `CCS(=N)(=O)c1ccc(-n2ccn(-c3c4c(nn3-c3ccc(F)c(C5CC5)c3)CCN(C(=O)c3cc5cc(C6CCOCC6)ccc5n3[C@@]3(c5noc(=O)[nH]5)C[C@@H]3C)[C@H]4C)c2=O)c(F)c1` (single isomer, unassigned) [Compound 167], 0.12 nM; as for `Cc1cc(-n2nc3c(c2-n2ccn(-c4ccc(S(=N)(=O)C5CCC5)cc4F)c2=O)[C@H](C)N(C(=O)c2cc4cc(C5CCOCC5)ccc4n2[C@@]2(c4noc(=O)[nH]4)C[C@@H]2C)CC3)cc(C)c1F` (single isomer, unassigned) [Compound 169], 0.07 nM.
Next, `CCS(=O)(=NC)c1ccc(-n2ccn(-c3c4c(nn3-c3cc(C)c(F)c(C)c3)CCN(C(=O)c3cc5cc(C6CCOCC6)ccc5n3Cc3cnc(C)cn3)[C@H]4C)c2=O)c(F)c1` (single isomer, unassigned) [Compound 170]: 1.8 nM; `CCS(=O)(=NC)c1ccc(-n2ccn(-c3c4c(nn3-c3cc(C)c(F)c(C)c3)CCN(C(=O)c3cc5cc(C6CCOCC6)ccc5n3Cc3ccc(C)nc3)[C@H]4C)c2=O)c(F)c1` (single isomer, unassigned) [Compound 171]: 8.8 nM; `Cc1cc(-n2nc3c(c2-n2ccn(-c4ccc(S5(=O)=NCCC5)cc4)c2=O)[C@H](C)N(C(=O)c2cc4cc(C5CCOCC5)ccc4n2C2(c4nnn[nH]4)CC2)CC3)cc(C)c1F` (single isomer, unassigned) [Compound 172]: 0.037 nM.
Next, `CC[C@H]1C[C@]1(c1noc(=O)[nH]1)n1c(C(=O)N2CCc3nn(-c4cc(C)c(F)c(C)c4)c(-n4ccn(-c5ccc(S(=N)(=O)CC)cc5F)c4=O)c3[C@@H]2C)cc2cc(C3CCOCC3)ccc21` (single isomer, unassigned) [Compound 173]: 0.012 nM.
